As a reminder, the inhibition is the relative decrease from the control value, in per cent.

Experiment [1] addresses T1, human recombinant adrenergic α2A receptor (Homo sapiens, UniProt P08913).
T1 construct: expressed in transfected cells; host or cells: insect Sf9 cells
T1 sequence (P08913 1-465): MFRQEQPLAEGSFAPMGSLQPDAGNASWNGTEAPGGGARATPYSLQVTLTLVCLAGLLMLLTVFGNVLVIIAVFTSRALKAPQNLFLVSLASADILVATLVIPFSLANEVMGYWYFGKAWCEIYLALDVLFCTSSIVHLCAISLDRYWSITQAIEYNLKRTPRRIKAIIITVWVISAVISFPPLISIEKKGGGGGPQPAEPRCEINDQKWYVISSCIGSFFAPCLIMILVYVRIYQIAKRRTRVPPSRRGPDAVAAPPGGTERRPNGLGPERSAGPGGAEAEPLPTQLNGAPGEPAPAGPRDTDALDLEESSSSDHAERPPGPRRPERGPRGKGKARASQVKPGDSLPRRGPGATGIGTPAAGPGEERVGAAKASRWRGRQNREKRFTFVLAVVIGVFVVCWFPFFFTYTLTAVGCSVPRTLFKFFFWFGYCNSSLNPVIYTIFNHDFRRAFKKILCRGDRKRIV
The experiment is described as follows: Adrenergic α2A radioligand binding assay ([3H]MK-912). To be noted: 1 nM [3H]MK-912, insect Sf9 cells; for inhibition at 1 µM: compound at 1 μM, read-out: Percent Inhibition of ligand binding, Adrenergic (1 μM) a2A; for inhibition at 0.1 µM: compound at 0.1 μM, read-out: Percent Inhibition of ligand binding, Adrenergic (0.1 μM) a2A. As for the experimental part:
To evaluate in radioligand binding assays the activity of compounds of the invention, human recombinant adrenergic α2A receptor expressed in insect Sf9 cells (Uhlen S et al. J. Pharmacol. Exp. Ther. 271:1558, 1994) in a modified Tris-HCl buffer (50 mM Tris-HCl, pH 7.4, 12.5 mM MgCl2, 2 mM EDTA) was used. Compounds of invention were incubated with 1 nM [^3H]MK-912 for 60 min at 25° C. MK912 is (2S-trans)-1,3,4,5′,6,6′,7,12b-octahydro-1′,3′-dimethyl-spiro[2H-benzofuro[2,3-a]quinolizine-2,4′(1′H)-pyrimidin]-2′(3′H)-one hydrochloride Non-specific binding was estimated in the presence of 10 μM WB-4101 (2-(2,6-dimethoxyphenoxyethyl)aminomethyl-1,4-benzodioxane hydrochloride). Receptor proteins were filtered and washed, the filters were then counted to determine [^3H]MK-912 specifically bound.

In experiment [2] the target is T2, human recombinant serotonin (5-Hydroxytryptamine) 5-HT6 receptor (Homo sapiens, UniProt P50406).
T2 construct: expressed in transfected cells; host or cells: human HeLa cells
Kind of experiment: Serotonin 5-HT6 radioligand binding assay ([3H]LSD). Particulars: HeLa cells; for inhibition at 1 µM: compound at 1 μM, read-out: Percent Inhibition of ligand binding, Serotonin (1 μM) 5-HT6; for inhibition at 0.1 µM: compound at 0.1 μM, read-out: Percent Inhibition of ligand binding, Serotonin (0.1 μM) 5-HT6. As for the experimental part:
Compounds of the invention were incubated with 1.5 nM [3H]Lysergic acid diethylamide (LSD) for 120 min at 37° C. […] Receptor proteins were filtered and washed, the filters were then counted to determine [3H]LSD specifically bound. Compounds were screened at 1 μM or lower, using 1% DMSO as vehicle. Biochemical assay results are presented as the percent inhibition of specific binding in Table 4.

Experiment [3] deals with T3, human recombinant serotonin (5-Hydroxytryptamine) 5-HT2A receptor (Homo sapiens, UniProt P28223).
T3 construct: expressed in transfected cells; host or cells: Chinese hamster ovary (CHO-K1) cells
The experiment is described as follows: Serotonin 5-HT2A radioligand binding assay ([3H]Ketanserin). To be noted: 0.5 nM [3H]Ketanserin, CHO-K1 cells; for inhibition at 1 µM: compound at 1 μM, read-out: Percent Inhibition of ligand binding, Serotonin (1 μM) 5-HT2A; for inhibition at 0.1 µM: compound at 0.1 μM, read-out: Percent Inhibition of ligand binding, Serotonin (0.1 μM) 5-HT2A. As to the method: Compounds of the invention were incubated with 0.5 nM [^3H]Ketanserin for 60 min at 25° C. Non-specific binding was estimated in the presence of 1 μM Mianserin. Receptor proteins were filtered and washed, the filters were then counted to determine [^3H]Ketanserin specifically bound. Compounds were screened at 1 μM or lower, using 1% DMSO as vehicle. Biochemical assay results are presented as the percent inhibition of specific binding in Table 4.

Experiment [4] concerns the target T4, human recombinant adrenergic α1D receptor (Homo sapiens, UniProt P25100).
T4 construct: expressed in transfected cells; host or cells: human embryonic kidney (HEK-293) cells
T4 sequence (P25100 1-572): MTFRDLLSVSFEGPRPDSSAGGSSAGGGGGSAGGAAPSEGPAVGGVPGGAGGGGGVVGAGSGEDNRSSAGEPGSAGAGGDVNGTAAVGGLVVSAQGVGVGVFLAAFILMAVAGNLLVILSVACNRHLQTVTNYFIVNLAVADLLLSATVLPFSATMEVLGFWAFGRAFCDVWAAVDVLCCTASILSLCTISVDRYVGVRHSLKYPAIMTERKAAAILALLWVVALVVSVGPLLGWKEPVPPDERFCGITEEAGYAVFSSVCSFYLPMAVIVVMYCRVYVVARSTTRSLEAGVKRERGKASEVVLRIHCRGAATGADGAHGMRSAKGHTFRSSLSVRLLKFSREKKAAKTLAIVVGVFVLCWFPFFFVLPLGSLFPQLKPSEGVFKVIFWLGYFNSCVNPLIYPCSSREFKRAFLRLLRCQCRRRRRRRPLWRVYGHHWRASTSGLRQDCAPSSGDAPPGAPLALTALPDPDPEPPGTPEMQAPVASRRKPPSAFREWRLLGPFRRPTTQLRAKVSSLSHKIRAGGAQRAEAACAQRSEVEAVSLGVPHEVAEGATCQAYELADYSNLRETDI
The experiment is described as follows: Adrenergic α1D radioligand binding assay ([3H]Prozosin). To be noted: 0.6 nM [3H]Prozosin, HEK-293 cells; for inhibition at 1 µM: compound at 1 μM, read-out: Percent Inhibition of ligand binding, Adrenergic (1 μM) a1D; for inhibition at 0.1 µM: compound at 0.1 μM, read-out: Percent Inhibition of ligand binding, Adrenergic (0.1 μM) a1D. As for the experimental part: Compounds of invention were incubated with 0.6 nM [^3H]Prozosin for 60 min at 25° C. Non-specific binding was estimated in the presence of 10 μM phentolamine Receptor proteins were filtered and washed, the filters were then counted to determine [^3H]Prozosin specifically bound.

T2 sequence (P50406 whole entry): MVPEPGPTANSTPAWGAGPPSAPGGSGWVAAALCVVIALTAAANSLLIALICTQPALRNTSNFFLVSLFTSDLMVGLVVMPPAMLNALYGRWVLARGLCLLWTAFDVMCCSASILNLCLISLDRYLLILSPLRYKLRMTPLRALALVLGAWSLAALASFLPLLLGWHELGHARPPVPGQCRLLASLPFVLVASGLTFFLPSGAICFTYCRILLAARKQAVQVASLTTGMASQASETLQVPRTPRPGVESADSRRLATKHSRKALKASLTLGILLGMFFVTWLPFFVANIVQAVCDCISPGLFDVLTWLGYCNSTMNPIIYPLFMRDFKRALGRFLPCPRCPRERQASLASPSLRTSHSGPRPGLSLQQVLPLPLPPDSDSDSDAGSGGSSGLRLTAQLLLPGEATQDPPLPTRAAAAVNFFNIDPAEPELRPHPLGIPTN
T3 sequence (P28223 whole entry): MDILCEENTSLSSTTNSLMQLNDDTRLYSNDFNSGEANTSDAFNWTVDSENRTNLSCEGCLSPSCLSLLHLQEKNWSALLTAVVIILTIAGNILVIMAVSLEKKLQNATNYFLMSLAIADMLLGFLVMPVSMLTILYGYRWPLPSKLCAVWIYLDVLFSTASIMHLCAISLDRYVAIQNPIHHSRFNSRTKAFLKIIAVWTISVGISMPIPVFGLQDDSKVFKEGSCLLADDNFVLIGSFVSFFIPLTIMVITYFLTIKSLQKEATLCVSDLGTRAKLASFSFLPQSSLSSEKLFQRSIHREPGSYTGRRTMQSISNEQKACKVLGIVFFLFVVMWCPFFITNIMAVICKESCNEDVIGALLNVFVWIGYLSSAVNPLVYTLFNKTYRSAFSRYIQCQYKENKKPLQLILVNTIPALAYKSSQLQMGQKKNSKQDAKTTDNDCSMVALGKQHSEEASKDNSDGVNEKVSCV

On to `CN1CCc2c(c3cc(Cl)ccc3n2CC(=O)c2ccc(F)cc2)C1` [Compound 1-37, 2-(8-chloro-2-methyl-3,4-dihydro-1H-pyrido[4,3-b]indol-5(2H)-yl)-1-(4-fluorophenyl)ethanone], for which the inhibition at 1 µM in experiment [1] was determined as 87%; in experiment [2] it was 71%; in experiment [3], 98%; in experiment [4] it was 56%.
Regarding `CC[C@](O)(Cn1c2c(c3cc(C)ccc31)CN(C)CC2)c1ccc(F)cc1` [Compound 1-60, (R)-1-(2,8-Dimethyl-3,4-dihydro-1H-pyrido[4,3-b]indol-5(2H)-yl)-2-(4-fluorophenyl)butan-2-ol], the inhibition at 0.1 µM is 3% in experiment [1], 48% in experiment [2], 67% in experiment [3] and 13% in experiment [4].
Consider `Cc1ccc2c(c1)c1c(n2CC(=O)c2ccccc2)CCN(C)C1` [Compound 1-35, 2-(2,8-dimethyl-3,4-dihydro-1H-pyrido[4,3-b]indol-5(2H)-yl)-1-phenylethanone], for which the inhibition at 1 µM in experiment [1] was 19%; in experiment [2], 14%; in experiment [3], 90%; in experiment [4] it was 18%.
As to `CC[C@](O)(Cn1c2c(c3cc(C)ccc31)CN(C)CC2)c1ccncc1` [Compound 1-63, (R)-1-(2,8-Dimethyl-3,4-dihydro-1H-pyrido[4,3-b]indol-5(2H)-yl)-2-(pyridine-4-yl)butan-2-ol], the inhibition at 0.1 µM was 12% in experiment [1], 25% in experiment [2], 21% in experiment [3] and -13% in experiment [4].
On to `CCCC[C@](O)(Cn1c2c(c3cc(Cl)ccc31)CN(C)CC2)c1ccc(F)cc1` [Compound 1-61, (R)-1-(8-Chloro-2-methyl-3,4-dihydro-1H-pyrido[4,3-b]indol-5(2H)-yl)-2-(4-fluorophenyl)hexan-2-ol], for which the inhibition at 0.1 µM in experiment [1] was -7%; in experiment [2], 68%; in experiment [3], 81%; in experiment [4], 14%.
Consider `CN1CCc2c(c3cc(Cl)ccc3n2CC(=O)c2ccc(Cl)cc2)C1` [Compound 1-38, 2-(8-chloro-2-methyl-3,4-dihydro-1H-pyrido[4,3-b]indol-5(2H)-yl)-1-(4-chlorophenyl)ethanone], for which the inhibition at 1 µM was determined as 90% in experiment [1], 57% in experiment [2], 100% in experiment [3] and 56% in experiment [4].
`Cc1ccc2c(c1)c1c(n2CC(C)(O)c2ccc(O)cc2)CCN(C)C1` (stereo not drawn) [Compound 1-15, 4-(1-(2,8-dimethyl-3,4-dihydro-1H-pyrido[4,3-b]indol-5(2H)-yl)-2-hydroxypropan-2-yl)phenol]: the inhibition at 0.1 µM in experiment [1] was determined as 32%. Besides, the inhibition at 1 µM in experiment [3] stood at 102%.
For `COc1ccc([C@](C)(O)Cn2c3c(c4cc(C)ccc42)CN(C)CC3)cc1` [Compound 1-20, (S)-1-(2,8-Dimethyl-3,4-dihydro-1H-pyrido[4,3-b]indol-5(2H)-yl)-2-(4-methoxyphenyl)propan-2-ol], the inhibition at 0.1 µM in experiment [1] came to 57%; in experiment [3], 91%; in experiment [4], 22%.
As for `CC[C@@](O)(Cn1c2c(c3cc(C)ccc31)CN(C)CC2)c1ccc(F)cc1` [Compound 1-66, (S)-1-(2,8-dimethyl-3,4-dihydro-1H-pyrido[4,3-b]indol-5(2H)-yl)-2-(4-fluorophenyl)butan-2-ol], the values for the inhibition at 0.1 µM in experiment [1], in experiment [2] and in experiment [3] were 29%, 72% and 77%, respectively.
In the case of `Cc1ccc2c(c1)c1c(n2CC(C)(C)c2ccncc2)CCN(C)C1` [Compound 1-49, 2,8-dimethyl-5-(2-methyl-2-(pyridin-4-yl)propyl)-2,3,4,5-tetrahydro-1H-pyrido[4,3-b]indole], the inhibition at 0.1 µM stood at 38% in experiment [2] and 78% in experiment [3].
Take `CC[C@@](O)(Cn1c2c(c3cc(C)ccc31)CN(C)CC2)c1ccncc1` [Compound 1-62, (S)-1-(2,8-Dimethyl-3,4-dihydro-1H-pyrido[4,3-b]indol-5(2H)-yl)-2-(pyridine-4-yl)butan-2-ol]: the inhibition at 0.1 µM is 10% in experiment [1], 28% in experiment [2], 43% in experiment [3] and 6% in experiment [4].
In the case of `CCCC[C@@](O)(Cn1c2c(c3cc(Cl)ccc31)CN(C)CC2)c1ccc(F)cc1` [Compound 1-67, (S)-1-(8-chloro-2-methyl-3,4-dihydro-1H-pyrido[4,3-b]indol-5(2H)-yl)-2-(4-fluorophenyl)hexan-2-ol], the figures for the inhibition at 0.1 µM in experiment [2] and in experiment [3] were 25% and 39%, respectively.
As to `CN1CCc2c(c3cc(Cl)c(Cl)cc3n2CC(C)(O)c2ccncc2)C1` (stereo not drawn) [Compound 1-17, 1-(7,8-dichloro-2-methyl-3,4-dihydro-1H-pyrido[4,3-b]indol-5(2H)-yl)-2-(pyridin-4-yl)propan-2-ol], the inhibition at 0.1 µM in experiment [1] turned out to be 64%. For the same molecule, the inhibition at 1 µM in experiment [3] stood at 96%.
With `Cc1ccc2c(c1)c1c(n2CC(O)c2ccncc2)CCN(C)C1` (stereo not drawn) [Compound 1-8, 2-(2,8-dimethyl-3,4-dihydro-1H-pyrido[4,3-b]indol-5(2H)-yl)-1-(pyridin-4-yl)ethanol], the inhibition at 0.1 µM in experiment [1] is 37%. In addition, the inhibition at 1 µM in experiment [3] amounted to 86%.
In the case of `Cc1ccc2c(c1)c1c(n2CC(C)c2ccncc2)CCN(C)C1` (stereo not drawn) [Compound 1-46, 2,8-dimethyl-5-(2-(pyridin-4-yl)propyl)-2,3,4,5-tetrahydro-1H-pyrido[4,3-b]indole], the figures for the inhibition at 0.1 µM in experiment [2] and in experiment [3] were 45% and 71%, respectively.
As for `CN1CCc2c(c3cc(Cl)ccc3n2CC(O)c2ccncc2)C1` (stereo not drawn) [Compound 1-11, 2-(8-chloro-2-methyl-3,4-dihydro-1H-pyrido[4,3-b]indol-5(2H)-yl)-1-(pyridin-4-yl)ethanol], the inhibition at 0.1 µM in experiment [1] came to 41%. Further, the inhibition at 1 µM in experiment [3] is 82%.

The record behind these values is patent publication US9255094B2, “Pyrido[4,3-B]indoles and methods of use” (Medivation Technologies, Inc., priority 2009, dated 2016).
